Test results as given in US20160044922A1, “Control of Ectoparasites” (priority 2014, published 2016).

Assays:
[1] = test system: predatory mites and many beneficial insects; conditions: under field conditions; cited from earlier work
beneficial mite species = conditions: under normal use; cited from earlier work
fish, mammals = conditions: fish versus mammals; cited from earlier work
ticks = assay: Activity on ticks; conditions: in vivo
cotton aphids = conditions: cited from earlier work
[2] = test system: Larval-stage lone star ticks (Amblyomma americanum); assay: Dip survival assay, A. americanum larvae; format: in vivo; conditions: larvae submerged 30 minutes, counted after 24 hours at 25° with 95% humidity
Method: Activity Against A. Americanum Larvae in a Dip Survival Assay
Compound 1 from a dimethyl sulfoxide (DMSO) stock or 2% DMSO alone is dispensed into a round-bottom 96-well plate and mixed with aqueous buffer containing 1% ethanol, 0.2% Triton X100. […] Larval-stage lone star ticks (Amblyomma americanum) are dispensed into the wells containing the Compound and submerged for 30 minutes. The ticks are subsequently dispensed into a tissue biopsy bag, which is allowed to dry for 1 hour. After drying, the bags are incubated at 25° with 95% humidity for 24 hours and the number of live or dead larvae are enumerated. The observations made illustrated in the following table.

southern corn rootworm = conditions: cited from earlier work
tobacco budworm = conditions: cited from earlier work
tobacco bud worm = conditions: cited from earlier work
[3] = rat versus trout liver microsomes; cited from earlier work
mosquito larvae = conditions: cited from earlier work
fleas = assay: Activity on fleas; conditions: in vivo
cabbage looper = conditions: cited from earlier work

Structure (SMILES) | impact on predatory mites and many beneficial insects [1] | toxicity to beneficial mite species (beneficial mite species) | toxicity (fish, mammals) | activity on ticks (ticks) | LC50 (cotton aphids) [ppm] | Number of live/dead A. americanum larvae 24 hours after treatment ([2]; 0.01% compound) | Number of live/dead A. americanum larvae 24 hours after treatment ([2]; 0.05% compound) | activity (southern corn rootworm) | activity (tobacco budworm) | metabolism by the tobacco bud worm (tobacco bud worm) | degradation by liver microsomes [3] | LC50 (mosquito larvae) [ppm] | activity on fleas (fleas) | LC50 (cabbage looper) [ppm]
CC(C)(C)c1ccc(CSc2cnn(C(C)(C)C)c(=O)c2Cl)cc1 [pyridaben, 4-chloro-2-tert-butyl-5-[(4-tert-butylphenyl)methylsulfanyl]pyridazin-3-one] | minimal impact | – | – | – | – | – | – | – | – | – | – | – | – | –
CCc1nn(C)c(C(=O)NCc2ccc(C(C)(C)C)cc2)c1Cl [Formula II, 4-chloro-5-ethyl-2-methyl-N-[(4-tert-butylphenyl)methyl]pyrazole-3-carboxamide] | minimal impact | relatively low toxicity | – | – | – | – | – | – | – | – | – | – | – | –
CC(C)(C)c1ccc(CCOc2ncnc3ccccc23)cc1 [Formula I, 4-tert-butylphenethyl quinazolin-4-yl ether] | minimal impact | relatively low toxicity | higher toxicity of the compound to fish than to mammals | active | 2.6 | 0/52 | 0/48 | greater than 400 ppm | greater than 400 ppm | extensively metabolized | degraded more extensively by rat liver microsomes than by trout liver microsomes | 0725 | active | 188
